Here are results for three molecules from US20060270705A1, “Method for inhibiting lipid absorption and lipid absorption inhibitor” (Japan Tobacco Inc., priority 2005, published 2006).

Assay [1] relates to lipid absorption in the small intestine. Put plainly: Inhibitory effect on lipid absorption in the small intestine: plasma triglyceride after oral olive oil loading in hamsters. In kind it is in vivo, normal syrian hamsters. The following applies: control group = 100%; for TG Concentration (%): Test 1, olive oil 2 mL/kg 30 min later, plasma 4 hours after olive oil, male 13-week old hamsters; for TG Concentration (4 hours) / TG Concentration (%) (8 hours): Test 2, 30 mg/kg oral, male 12-week old hamsters; for TG Concentration (4 hours): plasma 4 hours after oil loading; for TG Concentration (%) (8 hours): plasma 8 hours after oil loading. Here is the method:
Test of Inhibitory Effect on Lipid Absorption in the Small Intestine by Various CETP Inhibitors in Hamsters
(§1) Three kinds of CETP inhibitors (compound A: 40 mg/kg, compound B: 3 mg/kg, compound C: 3 mg/kg) suspended in 0.5% aqueous methylcellulose were orally administered to normal syrian hamsters (male, 13-week old). Only 0.5% aqueous methylcellulose was administered to the control group. After 30 minutes, olive oil at a dose of 2 mL/kg was orally loaded. Blood was collected from ophthalmic venous plexus 4 hours after the administration of olive oil, and plasma triglyceride (TG) concentration and CETP inhibitory activity were measured. Plasma triglyceride (TG) concentration was measured by enzymatic method. For CETP activity, the amount of [^3H]CE transferred from donor lipoprotein ([^3H]CE-HDL3) to acceptor lipoprotein (hamster apoB-containing lipoprotein) was used as index.
(§2) Using a test system similar to Test 1, the effects of compound B (30 mg/kg) and compound C (30 mg/kg) in normal syrian hamsters (male, 12-week old) were examined. Blood collection was carried out at 4 and 8 hours after oil loading, and plasma triglyceride (TG) concentration and CETP inhibitory activity were measured.

A further assay concerns CETP. Put plainly: CETP activity in hamster plasma after oral dosing: [3H]CE transfer from donor [3H]CE-HDL3 to hamster apoB-containing lipoprotein. In kind it is in vivo, normal syrian hamsters. The following applies: proportion relative to control group = 100%; for CETP Inhibitory Activity (%): Test 1, plasma 4 hours after olive oil; for CETP Inhibitory Activity (%) (8 hours): Test 2, 30 mg/kg oral, plasma 8 hours after oil loading. On the procedure: Potassium bromide (KBr) was added to plasma (40 mL) of a healthy subject, adjusted to have a specific density d=1.125 g/mL, and subjected to fractional ultracentrifugation (288,000×g, 4° C., 18 to 20 hr), and a fraction showing a specific density of d>1.125 g/mL (HDL3 fraction) was harvested. The obtained fraction was dialyzed against PBS solution [10 mmol/L Na2HPO4; 10 mmol/L NaH2PO4; 0.15 mol/L NaCl; 1 mmol/L EDTA (pH 7.4)]. Then, tritium-labeled cholesterol (37 MBq) was dissolved in 95% ethanol, gradually added to the above-mentioned HDL3 fraction with stirring and incubated at 37° C. for 18 to 24 hr. [By this operation, tritium-labeled cholesterol was esterified by the action of lecithin cholesterol acyl transferase (LCAT) present on the HDL3 surface and taken up into HDL3 as tritium-labeled cholesteryl ester ([^3H]CE)]. After incubation, KBr was added, the specific density was adjusted to d=1.21 g/mL, and subjected to fractional ultracentrifugation (285,000×g, 4° C., 70 to 90 hr), and a fraction of specific density […] was harvested. The obtained fraction was dialyzed against the aforementioned PBS solution to give HDL3 incorporating [^3H]CE ([^3H]CE-HDL3, specific density: 1.125<d<1.21, specific activity: 22,000-33,000 dpm/μL) as a donor lipoprotein.
as §1, §2

Setting [2] is: 3 mg/kg oral in 0.5% methylcellulose.

As for `CCC(CC)CC1(C(=O)Nc2ccccc2SC(=O)C(C)C)CCCCC1` [Compound A, S-{2-([[1-(2-ethylbutyl)cyclohexyl]carbonyl]amino)phenyl}2-methylpropanethioate], the “TG Concentration (%)” value in assay [1] (40 mg/kg oral in 0.5% methylcellulose) was 87%. The “CETP Inhibitory Activity (%)” value in the assay with CETP (40 mg/kg oral) is reported as 83%.

On to `CCN(C[C@H]1CC[C@H](CC(=O)O)CC1)c1cc(C)c(C(F)(F)F)cc1CN(Cc1cc(C(F)(F)F)cc(C(F)(F)F)c1)c1nnn(C)n1.CS(=O)(=O)O` [Compound B, trans-(4-{[N-(2-{[N′-[3,5-bis(trifluoromethyl)benzyl]-N′-(2-methyl-2H-tetrazol-5-yl)amino]methyl}-5-methyl-4-trifluoromethylphenyl)-N-ethylamino]methyl}cyclohexyl)acetic acid methanesulfonate], for which the “TG Concentration (%)” value in assay [1] (setting [2]) is 69%. Moreover, in assay [1], the “TG Concentration (4 hours)” value amounted to 66% and the “TG Concentration (%) (8 hours)” value came to 56%. Further, the “CETP Inhibitory Activity (%)” value in the assay on CETP (3 mg/kg oral) is reported as 29%. Besides, in the assay with CETP, the “CETP Inhibitory Activity (%) (8 hours)” value is given as 29%.

Regarding `CCOC(=O)N1c2ccc(C(F)(F)F)cc2[C@@H](N(Cc2cc(C(F)(F)F)cc(C(F)(F)F)c2)C(=O)OC)C[C@H]1CC` [Compound C], the “TG Concentration (%)” value in assay [1] (setting [2]) came to 69%. Moreover, in assay [1], the “TG Concentration (4 hours)” value came to 85% and the “TG Concentration (%) (8 hours)” value stood at 71%. For the same molecule, the “CETP Inhibitory Activity (%)” value in the assay on CETP (3 mg/kg oral) worked out at 20%. In the assay on CETP, the “CETP Inhibitory Activity (%) (8 hours)” value stood at 37%.
